pEC50: −log10 of the molar value.

human GPBAR1 receptor, sequence (Q8TDU6 whole entry): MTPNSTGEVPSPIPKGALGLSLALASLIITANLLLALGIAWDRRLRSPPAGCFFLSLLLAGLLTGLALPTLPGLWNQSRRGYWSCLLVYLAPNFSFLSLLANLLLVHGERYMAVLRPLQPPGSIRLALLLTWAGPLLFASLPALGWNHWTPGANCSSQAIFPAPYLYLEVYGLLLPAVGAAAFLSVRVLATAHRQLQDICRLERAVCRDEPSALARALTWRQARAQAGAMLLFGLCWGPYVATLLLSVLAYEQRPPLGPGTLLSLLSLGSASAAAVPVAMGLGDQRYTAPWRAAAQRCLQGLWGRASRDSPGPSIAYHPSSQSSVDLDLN

The target of the test is human GPBAR1 receptor (Homo sapiens (Human), UniProt Q8TDU6). Put plainly: functional cAMP assay in CHO-dhfr(minus) cells expressing human GPBAR1 receptors. It is filed as cell-based. Particulars: CHO-dhfr(minus) cells expressing human GPBAR1, 30 min at 30° C. In short, it runs like this:
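CHO-dhfr- cells were transfected with human GPBAR1, and a clone was chosen by cAMP response to lithocholic acid. EC50 values come from the cAMP read-out; specificity was checked in non-transfected CHO cells.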
Background: cAMP levels reflect the balance of adenylyl cyclase and phosphodiesterase activity.
Regarding `COc1ccc(F)cc1-c1ccncc1N(CC(N)=O)C(=O)c1cc(C(F)(F)F)cc(S(C)(=O)=O)c1` [Example 309, N-Carbamoylmethyl-N-[4-(5-fluoro-2-methoxy-phenyl)-pyridin-3-yl]-3-methanesulfonyl-5-trifluoromethyl-benzamide], the pEC50 (commonly −log10 of the EC50, conventionally taken in molar units) was 6.56.
For `COC(=O)CN(C(=O)c1cc(C(F)(F)F)nc(C(F)(F)F)c1)c1cnccc1-c1ccccc1F` [Example 196, Methyl 2-(N-(4-(2-fluorophenyl)pyridin-3-yl)-2,6-bis(trifluoromethyl)isonicotinamido)acetate] the value was 7.64; for `CN(C(=O)c1cc(C(F)(F)F)cc(C(F)(F)F)c1)c1cnccc1-c1ccccc1N` [Example 222, N-[4-(2-Amino-phenyl)-pyridin-3-yl]-N-methyl-3,5-bis-trifluoromethyl-benzamide], 6.74.
For `CN(C(=O)c1cc(C(F)(F)F)cc(C(F)(F)F)c1)c1cnccc1-c1cccnc1OCC(F)(F)F` [Example 106, N-Methyl-N-[2-(2,2,2-trifluoro-ethoxy)-[3,4′]bipyridinyl-3′-yl]-3,5-bis-trifluoromethyl-benzamide] the value was 7.37.
As to `COc1cc(C(=O)N(C)c2cnccc2-c2ccc(F)cc2OC)cc(Cl)n1` [Example 198, 2-Chloro-N-[4-(4-fluoro-2-methoxy-phenyl)-pyridin-3-yl]-6-methoxy-N-methyl-isonicotinamide], the pEC50 was 7.04.
For `COc1ncccc1-c1ccncc1N(CCS(C)(=O)=O)C(=O)c1cc(C(F)(F)F)nc(C(F)(F)F)c1` [Example 160, N-(2-Methanesulfonyl-ethyl)-N-(2-methoxy-[3,4′]bipyridinyl-3′-yl)-2,6-bis-trifluoromethyl-isonicotinamide] the value was 6.55.
